# In patent US9920010B2, “CXCR7 receptor modulators” (IDORSIA PHARMACEUTICALS LTD, priority 2013, dated 2018):
# pEC50: −log10 of the molar value.
# Target: T1, CXCR7 (Homo sapiens, UniProt P25106)
# T1 construct: host or cells: CHO-K1 (PathHunter CHO-K1 CXCR7 b-arrestin cell line, stably transfected)
# Assay: PathHunter CHO-K1 CXCR7 b-arrestin recruitment assay (CXCR7 agonistic activity)
# Assay type: cell-based
# Conditions: PathHunter CHO-K1 CXCR7 b-arrestin cell line
# Method in brief: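 Stable CHO-K1 line with C-terminally ProLink-tagged CXCR7 and β-arrestin 2–EA fusion; β-arrestin recruitment restores β-gal activity, read by chemiluminescence after 1 h RT detection. Cells seeded 24 h, starved in OPTIMEM 3–4 h, exposed to compounds 90 min at 37 °C in HBSS/HEPES/BSA. Geometric-mean EC50 from repeated measurements.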
# T1 sequence (P25106 whole entry): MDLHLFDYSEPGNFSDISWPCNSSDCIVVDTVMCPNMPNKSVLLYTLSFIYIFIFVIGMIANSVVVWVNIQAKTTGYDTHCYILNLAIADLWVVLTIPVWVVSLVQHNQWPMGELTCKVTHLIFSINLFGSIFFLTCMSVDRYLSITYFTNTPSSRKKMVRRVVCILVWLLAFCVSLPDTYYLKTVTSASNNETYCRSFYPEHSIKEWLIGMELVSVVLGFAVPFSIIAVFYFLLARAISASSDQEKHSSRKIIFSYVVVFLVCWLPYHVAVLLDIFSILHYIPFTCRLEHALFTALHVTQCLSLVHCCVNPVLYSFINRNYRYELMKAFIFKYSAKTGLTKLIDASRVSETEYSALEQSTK
# T1 sequence (P32121 whole entry partner): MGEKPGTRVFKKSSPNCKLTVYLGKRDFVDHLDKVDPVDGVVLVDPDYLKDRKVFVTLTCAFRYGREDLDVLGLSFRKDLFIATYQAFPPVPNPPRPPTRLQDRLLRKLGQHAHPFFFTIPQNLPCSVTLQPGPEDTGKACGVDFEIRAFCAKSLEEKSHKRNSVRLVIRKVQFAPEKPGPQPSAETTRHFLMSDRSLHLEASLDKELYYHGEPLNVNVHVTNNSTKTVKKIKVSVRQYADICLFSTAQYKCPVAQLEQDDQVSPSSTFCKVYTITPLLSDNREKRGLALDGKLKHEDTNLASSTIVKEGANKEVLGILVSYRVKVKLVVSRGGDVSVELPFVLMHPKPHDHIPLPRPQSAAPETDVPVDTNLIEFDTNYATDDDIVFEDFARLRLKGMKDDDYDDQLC
row,pEC50,Compound
1,7.64,"CN(C)CCN(Cc1ccccc1)C(=O)/C=C/c1cccc2c1CCN(C)C2 [compound 142, (E)-N-Benzyl-N-(2-dimethylamino-ethyl)-3-(2-methyl-1,2,3,4-tetrahydro-isoquinolin-5-yl)-acrylamide]"
2,8.52,"CN(C)CCN(Cc1ccccc1)C(=O)/C=C/c1cccc2c1CCN(CC1CC1)C2 [compound 143, (E)-N-Benzyl-3-(2-cyclopropylmethyl-1,2,3,4-tetrahydro-isoquinolin-5-yl)-N-(2-dimethylamino-ethyl)-acrylamide]"
3,7.66,"CCOC(=O)CN(Cc1ccccc1)C(=O)/C=C/c1cccc2c1CCN(CC1CC1)C2 [compound 144, {Benzyl-[(E)-3-(2-cyclopropylmethyl-1,2,3,4-tetrahydro-isoquinolin-5-yl)-acryloyl]-amino}-acetic acid ethyl ester]"
4,8.10,"CCN1CCc2c(/C=C/C(=O)N(CCN(C)C)Cc3ccccc3Cl)cccc2C1 [compound 145, (E)-N-(2-Chloro-benzyl)-N-(2-dimethylamino-ethyl)-3-(2-ethyl-1,2,3,4-tetrahydro-isoquinolin-5-yl)-acrylamide]"
5,8.70,"CN(C)CCN(Cc1ccccc1Cl)C(=O)/C=C/c1cccc2c1CCN(CC1CC1)C2 [compound 146, (E)-N-(2-Chloro-benzyl)-3-(2-cyclopropylmethyl-1,2,3,4-tetrahydro-isoquinolin-5-yl)-N-(2-dimethylamino-ethyl)-acrylamide]"
6,7.80,O=C(/C=C/c1cccc2c1CCN(CC1CC1)C2)N(Cc1ccccc1)C1CCS(=O)(=O)C1 (centres unmarked) [compound 147]
7,7.27,O=C(/C=C/c1cccc2c1CCN(CC1CC1)C2)N(CCc1ccc(F)cc1)Cc1ccccc1 [compound 148]
8,9.22,"CCN1CCc2c(/C=C/C(=O)N(CCN(C)C)Cc3ccccc3C(F)(F)F)cccc2C1 [compound 149, (E)-N-(2-Dimethylamino-ethyl)-3-(2-ethyl-1,2,3,4-tetrahydro-isoquinolin-5-yl)-N-(2-trifluoromethyl-benzyl)-acrylamide]"
9,9.00,"CN(C)CCN(Cc1ccccc1C(F)(F)F)C(=O)/C=C/c1cccc2c1CCN(CC1CC1)C2 [compound 150, (E)-3-(2-Cyclopropylmethyl-1,2,3,4-tetrahydro-isoquinolin-5-yl)-N-(2-dimethylamino-ethyl)-N-(2-trifluoromethyl-benzyl)-acrylamide]"
10,7.47,"CCN1CCc2c(/C=C/C(=O)N(Cc3ccccc3C(F)(F)F)C3CCN(C)CC3)cccc2C1 [compound 151, (E)-3-(2-Ethyl-1,2,3,4-tetrahydro-isoquinolin-5-yl)-N-(1-methyl-piperidin-4-yl)-N-(2-trifluoromethyl-benzyl)-acrylamide]"
11,8.10,"CN1CCC(N(Cc2ccccc2C(F)(F)F)C(=O)/C=C/c2cccc3c2CCN(CC2CC2)C3)CC1 [compound 152, (E)-3-(2-Cyclopropylmethyl-1,2,3,4-tetrahydro-isoquinolin-5-yl)-N-(1-methyl-piperidin-4-yl)-N-(2-trifluoromethyl-benzyl)-acrylamide]"
12,7.54,"C/C(=C\c1cccc2c1CCN(CC1CC1)C2)C(=O)N(CCN(C)C)Cc1ccccc1C(F)(F)F [compound 154, (E)-3-(2-Cyclopropylmethyl-1,2,3,4-tetrahydro-isoquinolin-5-yl)-N-(2-dimethylamino-ethyl)-2-methyl-N-(2-trifluoromethyl-benzyl)-acrylamide]"
13,7.77,"CCN1CCc2c(CCC(=O)N(CCN(C)C)Cc3ccccc3Cl)cccc2C1 [compound 155, N-(2-Chloro-benzyl)-N-(2-dimethylamino-ethyl)-3-(2-ethyl-1,2,3,4-tetrahydro-isoquinolin-5-yl)-propionamide]"
14,9.00,"CN(C)CCN(Cc1ccccc1Cl)C(=O)CCc1cccc2c1CCN(CC1CC1)C2 [compound 156, N-(2-Chloro-benzyl)-3-(2-cyclopropylmethyl-1,2,3,4-tetrahydro-isoquinolin-5-yl)-N-(2-dimethylamino-ethyl)-propionamide]"
